This passage reports IC50 and EC50 results from US10618916B2, “Heterocyclic compounds as immunomodulators” (Incyte Corporation, priority 2018, dated 2020).

The target in assay [1] is PD-1/PD-L1 protein/protein interaction (recombinant human PD-L1 and human PD-1) (Homo sapiens (Human), UniProt Q9NZQ7). The assay is described as follows: Homogeneous Time-Resolved Fluorescence (HTRF) PD-1/PD-L1 binding assay. The method in brief: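 Human PD-L1 (19-238, C-His; 10 nM final) and PD-1 (25-167, C-Fc; 3 nM final) preincubated 40 min with inhibitor in PBS pH 7.4, 0.05% Tween-20, 0.1% BSA, 1% DMSO, 25 °C. Eu-anti-human IgG (1 nM) and anti-His-APC (20 nM) added for 60 min; 665/620 nm ratio; IC50 from percent-control curves.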
PD-1/PD-L1 protein/protein interaction (recombinant human PD-L1 and human PD-1), sequence (Q9NZQ7 19-238): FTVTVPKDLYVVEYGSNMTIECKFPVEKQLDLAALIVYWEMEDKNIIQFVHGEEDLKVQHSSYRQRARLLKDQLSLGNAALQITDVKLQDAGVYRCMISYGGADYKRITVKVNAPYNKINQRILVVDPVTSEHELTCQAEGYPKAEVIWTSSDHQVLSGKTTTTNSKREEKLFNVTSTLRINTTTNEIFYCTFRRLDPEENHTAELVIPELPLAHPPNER
Background: Time-resolved FRET reads energy transfer from a long-lived donor to a nearby acceptor.

Assay [2] has as its system U2OS/PD-L1 cells and Jurkat-PD-1-SHP cells. As to the kind of experiment: Src homology region 2 domain-containing phosphatase (SHP) assay. Format: cell-based. To be noted: Homo sapiens, U2OS. In short, it runs like this: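 U2OS/PD-L1 and Jurkat-PD-1-SHP cells (5000 each per well) were co-incubated with compound for 2 h at 37 °C in RPMI1640 with 1% FBS, 0.05% DMSO final. PathHunter chemiluminescence was read after 1 h at room temperature, and IC50 was fitted from percent of DMSO-control activity.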

For assay [3], the system named is PD-L1 aAPC/CHO-K1 cells and Jurkat-PD-1-NFAT effector cells. As to the kind of experiment: Nuclear factor of activated T-cells (NFAT) assay. To be noted: Cricetulus griseus, CHO-K1. It is filed as cell-based. The method in brief:
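CHO-K1 cells expressing PD-L1 aAPC were co-cultured with Jurkat-PD-1-NFAT effector cells in RPMI 1640 with 1% FBS and compound (0.4% DMSO; top concentration 2 μM) for 24 h at 37 °C. Bio-Glo luminescence was read, fold induction normalised to DMSO wells, and EC50 fitted from percent of control compound activity.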

In another assay the target is PD-L1 (Homo sapiens (Human), UniProt Q9NZQ7). As to the kind of experiment: PD-L1 whole blood internalization assay. It is filed as cell-based. As to conditions: 24 HR, PD-L1 expression on CD14+ cells, human interferon γ.
PD-L1, sequence (Q9NZQ7 19-290): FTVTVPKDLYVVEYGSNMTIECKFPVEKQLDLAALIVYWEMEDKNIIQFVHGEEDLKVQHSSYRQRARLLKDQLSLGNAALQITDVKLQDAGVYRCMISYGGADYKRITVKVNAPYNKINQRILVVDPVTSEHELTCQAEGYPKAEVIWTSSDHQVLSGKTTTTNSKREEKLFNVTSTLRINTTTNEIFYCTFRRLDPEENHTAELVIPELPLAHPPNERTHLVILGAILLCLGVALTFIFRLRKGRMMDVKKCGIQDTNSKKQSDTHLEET

One may read the IC50 as the concentration needed to halve the response being measured. Broadly, the EC50 is the midpoint of the concentration-response curve. As to `Cn1c(C(=O)Nc2cccc(-c3cccc(NC(=O)c4nc5c(n4C)CCN(CCC46CCC(C(=O)O)(CC4)C6)C5)c3Cl)c2Cl)nc2c1CCN(CCc1ccc(C(=O)O)cc1)C2` [Example 25, 4-(2-(2-((3′-(5-(4-carboxyphenethyl)-1-methyl-4,5,6,7-tetrahydro-1H-imidazo[4,5-c]pyridine-2-carboxamido)-2,2′-dichloro-[1,1′-biphenyl]-3-yl)carbamoyl)-1-methyl-1,4,6,7-tetrahydro-5H-imidazo[4,5-c]pyridin-5-yl)ethyl)bicyclo[2.2.1]heptane-1-carboxylic acid], the concentration for half-maximal inhibition (IC50) in assay [1] is no more than 5 nM; in assay [2], 10 to 100 nM; at PD-L1, 100 to 500 nM. Further, the EC50 in assay [3] is 10 to 100 nM.

As for `Cc1c(NC(=O)c2nc3c(n2C)CCNC3)cccc1-c1cccc(NC(=O)c2nc3c(n2C)CCN(CCC24CCC(C(=O)O)(CC2)C4)C3)c1Cl` [Example 27, 4-(2-(2-((2-chloro-2′-methyl-3′-(1-methyl-4,5,6,7-tetrahydro-1H-imidazo[4,5-c]pyridine-2-carboxamido)-[1,1′-biphenyl]-3-yl)carbamoyl)-1-methyl-1,4,6,7-tetrahydro-5H-imidazo[4,5-c]pyridin-5-yl)ethyl)bicyclo[2.2.1]heptane-1-carboxylic Acid], the IC50 in assay [1] is no more than 5 nM; in assay [2], no more than 10 nM; against PD-L1 it was 10 to 100 nM. This molecule also showed an EC50 in assay [3] of 10 to 100 nM.

Consider `Cc1c(NC(=O)c2nc3c(n2C)CCN(C2CCN(C(N)=O)CC2)C3)cccc1-c1cccc(NC(=O)c2nc3c(n2C)CCN(CCC24CCC(C(=O)O)(CC2)C4)C3)c1Cl` [Example 30, 4-(2-(2-((3′-(5-(1-carbamoylpiperidin-4-yl)-1-methyl-4,5,6,7-tetrahydro-1H-imidazo[4,5-c]pyridine-2-carboxamido)-2-chloro-2′-methyl-[1,1′-biphenyl]-3-yl)carbamoyl)-1-methyl-1,4,6,7-tetrahydro-5H-imidazo[4,5-c]pyridin-5-yl)ethyl)bicyclo[2.2.1]heptane-1-carboxylic acid], for which the values for the 50% inhibitory concentration (IC50) (in assay [1]; in assay [2]; on PD-L1) were no more than 5 nM, no more than 10 nM and 10 to 100 nM, respectively. The molecule further showed a concentration for a half-maximal effect (EC50) in assay [3] of 10 to 100 nM.

Consider `Cc1c(NC(=O)c2nc3c(n2C)CCN(C[C@@H](C)O)C3)cccc1-c1cccc(NC(=O)c2nc3c(n2C)CCN(CCC24CCC(C(=O)O)(CC2)C4)C3)c1Cl` [Example 31, (R)-4-(2-(2-((2-chloro-3′-(5-(2-hydroxypropyl)-1-methyl-4,5,6,7-tetrahydro-1H-imidazo[4,5-c]pyridine-2-carboxamido)-2′-methyl-[1,1′-biphenyl]-3-yl)carbamoyl)-1-methyl-1,4,6,7-tetrahydro-5H-imidazo[4,5-c]pyridin-5-yl)ethyl)bicyclo[2.2.1]heptane-1-carboxylic Acid], for which the values for the half-maximal inhibitory concentration (IC50) (in assay [1]; in assay [2]; against PD-L1) were no more than 5 nM, no more than 10 nM and 10 to 100 nM, respectively. In assay [3], this molecule had an EC50 of 10 to 100 nM.

On to `Cc1c(NC(=O)c2nc3c(n2C)CCN(CCC24CCC(C(=O)O)(CC2)C4)C3)cccc1-c1cccc(NC(=O)c2nc3c(n2C)CCN(CCC24CCC(C(=O)O)(CC2)C4)C3)c1Cl` [Example 34, 4,4′-(((((2-chloro-2′-methyl-[1,1′-biphenyl]-3,3′-diyl)bis(azanediyl))bis(carbonyl))bis(1-methyl-1,4,6,7-tetrahydro-5H-imidazo[4,5-c]pyridine-2,5-diyl))bis(ethane-2,1-diyl))bis(bicyclo[2.2.1]heptane-1-carboxylic acid)], for which the IC50 in assay [1] was no more than 5 nM; in assay [2], no more than 10 nM; against PD-L1, 10 to 100 nM. Moreover, the EC50 in assay [3] is 10 to 100 nM.

Take `Cc1c(NC(=O)c2nc3c(n2C)CCN(CC24CCC(C(=O)O)(CC2)C4)C3)cccc1-c1cccc(NC(=O)c2nc3c(n2C)CCN(CCC24CCC(C(=O)O)(CC2)C4)C3)c1Cl` [Example 35, 4-((2-((3′-(5-(2-(4-carboxybicyclo[2.2.1]heptan-1-yl)ethyl)-1-methyl-4,5,6,7-tetrahydro-1H-imidazo[4,5-c]pyridine-2-carboxamido)-2′-chloro-2-methyl-[1,1′-biphenyl]-3-yl)carbamoyl)-1-methyl-1,4,6,7-tetrahydro-5H-imidazo[4,5-c]pyridin-5-yl)methyl)bicyclo[2.2.1]heptane-1-carboxylic acid]: the IC50 in assay [1] was no more than 5 nM; in assay [2] it was 10 to 100 nM; against PD-L1, 100 to 500 nM. This molecule also showed an EC50 in assay [3] of 100 to 500 nM.

On to `Cc1c(NC(=O)c2nc3c(n2C)CCN(CCc2ccc(C(=O)O)cc2)C3)cccc1-c1cccc(NC(=O)c2nc3c(n2C)CCN(CCC24CCC(C(=O)O)(CC2)C4)C3)c1Cl` [Example 36, 4-(2-(2-((3′-(5-(4-carboxyphenethyl)-1-methyl-4,5,6,7-tetrahydro-1H-imidazo[4,5-c]pyridine-2-carboxamido)-2-chloro-2′-methyl-[1,1′-biphenyl]-3-yl)carbamoyl)-1-methyl-1,4,6,7-tetrahydro-5H-imidazo[4,5-c]pyridin-5-yl)ethyl)bicyclo[2.2.1]heptane-1-carboxylic acid], for which the half-maximal inhibitory concentration (IC50) was no more than 5 nM in assay [1], no more than 10 nM in assay [2] and 10 to 100 nM on PD-L1. In assay [3], the EC50 lay within 10 to 100 nM.

Take `Cc1c(NC(=O)c2nc3c(n2C)CCN(CCC24CCC(C(=O)O)(CC2)C4)C3)cccc1-c1cccc(NC(=O)c2nc3c(n2C)CCNC3)c1Cl` [Example 37, 4-(2-(2-((2′-chloro-2-methyl-3′-(1-methyl-4,5,6,7-tetrahydro-1H-imidazo[4,5-c]pyridine-2-carboxamido)-[1,1′-biphenyl]-3-yl)carbamoyl)-1-methyl-1,4,6,7-tetrahydro-5H-imidazo[4,5-c]pyridin-5-yl)ethyl)bicyclo[2.2.1]heptane-1-carboxylic Acid]: the 50% inhibitory concentration (IC50) in assay [1] was no more than 5 nM; in assay [2], no more than 10 nM; against PD-L1, 10 to 100 nM. The EC50 in assay [3] lay in the range of 10 to 100 nM.

For the molecule `Cc1c(NC(=O)c2nc3c(n2C)CCN(CCC24CCC(C(=O)O)(CC2)C4)C3)cccc1-c1cccc(NC(=O)c2nc3c(n2C)CCN(C2CCOCC2)C3)c1Cl` [Example 38, 4-(2-(2-((2′-chloro-2-methyl-3′-(1-methyl-5-(tetrahydro-2H-pyran-4-yl)-4,5,6,7-tetrahydro-1H-imidazo[4,5-c]pyridine-2-carboxamido)-[1,1′-biphenyl]-3-yl)carbamoyl)-1-methyl-1,4,6,7-tetrahydro-5H-imidazo[4,5-c]pyridin-5-yl)ethyl)bicyclo[2.2.1]heptane-1-carboxylic acid], the half-inhibitory concentration (IC50) is no more than 5 nM in assay [1], no more than 10 nM in assay [2] and 10 to 100 nM at PD-L1. In addition, the 50% effective concentration (EC50) in assay [3] lay in the range of 10 to 100 nM.

With `Cc1c(NC(=O)c2nc3c(n2C)CCN(CCC24CCC(C(=O)O)(CC2)C4)C3)cccc1-c1cccc(NC(=O)c2nc3c(n2C)CCN(C2CCN(C(N)=O)CC2)C3)c1Cl` [Example 40, 4-(2-(2-((3′-(5-(1-carbamoylpiperidin-4-yl)-1-methyl-4,5,6,7-tetrahydro-1H-imidazo[4,5-c]pyridine-2-carboxamido)-2′-chloro-2-methyl[1,1′-biphenyl]-3-yl)carbamoyl)-1-methyl-1,4,6,7-tetrahydro-5H-imidazo[4,5-c]pyridin-5-yl)ethyl)bicyclo[2.2.1]heptane-1-carboxylic acid], the half-inhibitory concentration (IC50) is no more than 5 nM in assay [1], no more than 10 nM in assay [2] and 10 to 100 nM at PD-L1. Besides, in assay [3], the EC50 lay in the range of 10 to 100 nM.

As for `Cc1c(NC(=O)c2nc3c(n2C)CCN(CCC24CCC(C(=O)O)(CC2)C4)C3)cccc1-c1cccc(NC(=O)c2nc3c(n2C)CCN(C[C@@H](C)O)C3)c1Cl` [Example 41, (R)-4-(2-(2-((2′-chloro-3′-(5-(2-hydroxypropyl)-1-methyl-4,5,6,7-tetrahydro-1H-imidazo[4,5-c]pyridine-2-carboxamido)-2-methyl-[1,1′-biphenyl]-3-yl)carbamoyl)-1-methyl-1,4,6,7-tetrahydro-5H-imidazo[4,5-c]pyridin-5-yl)ethyl)bicyclo[2.2.1]heptane-1-carboxylic Acid], the half-inhibitory concentration (IC50) was no more than 5 nM in assay [1], no more than 10 nM in assay [2] and 10 to 100 nM at PD-L1. In assay [3], this molecule showed an EC50 of 10 to 100 nM.

On to `Cc1c(NC(=O)c2nc3c(n2C)CCN(CCC24CCC(C(=O)O)(CC2)C4)C3)cccc1-c1cccc(NC(=O)c2nc3c(n2C)CCN(C[C@H](C)O)C3)c1Cl` [Example 42, (S)-4-(2-(2-((2′-chloro-3′-(5-(2-hydroxypropyl)-1-methyl-4,5,6,7-tetrahydro-1H-imidazo[4,5-c]pyridine-2-carboxamido)-2-methyl-[1,1′-biphenyl]-3-yl)carbamoyl)-1-methyl-1,4,6,7-tetrahydro-5H-imidazo[4,5-c]pyridin-5-yl)ethyl)bicyclo[2.2.1]heptane-1-carboxylic acid], for which the half-inhibitory concentration (IC50) in assay [1] is no more than 5 nM; in assay [2], no more than 10 nM; on PD-L1, 10 to 100 nM. Further, the EC50 in assay [3] lay within 10 to 100 nM.
